{
  "source": "the supplement of paper PMC10307832",
  "assay_in_all_cases": "relative viability (nuclei count vs DMSO), 5 days (fraction); higher = more cells survive",
  "key": {"HOP-62": {"system": "HOP-62", "procedure,_shortened": "(§1)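 Lung cancer cell lines in 1536-well plates were dosed by pin tool the day after seeding, either with one drug alone or with a fixed anchor-drug dose plus five library-drug doses (not always all listed) in √10 steps. After 5 days, cells were fixed and their nuclei stained in one step (final 0.05% Triton X-100, 1% formaldehyde, 1 ug/ml Hoechst), then counted on 4× images. Relative viability is the nuclei count in treated wells divided by that in vehicle wells. Values are medians of duplicate plates.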"}, "NCI-H647": {"system": "NCI-H647", "procedure,_shortened": "as §1"}, "LOU-NH91": {"system": "LOU-NH91", "procedure,_shortened": "as §1"}, "NCI-H460": {"system": "NCI-H460", "procedure,_shortened": "as §1"}, "RERF-LC-KJ": {"system": "RERF-LC-KJ", "procedure,_shortened": "as §1"}, "NCI-H1755": {"system": "NCI-H1755", "procedure,_shortened": "as §1"}, "NCI-H1734": {"system": "NCI-H1734", "procedure,_shortened": "as §1"}, "NCI-H1915": {"system": "NCI-H1915", "procedure,_shortened": "as §1"}, "SW 1573": {"system": "SW 1573", "procedure,_shortened": "as §1"}, "A-427": {"system": "A-427", "procedure,_shortened": "as §1"}, "NCI-H1792": {"system": "NCI-H1792", "procedure,_shortened": "as §1"}, "LC-2-ad": {"system": "LC-2-ad", "procedure,_shortened": "as §1"}, "PC-3 [JPC-3]": {"system": "PC-3 [JPC-3]", "procedure,_shortened": "as §1"}, "HCC-78": {"system": "HCC-78", "procedure,_shortened": "as §1"}, "NCI-H2126": {"system": "NCI-H2126", "procedure,_shortened": "as §1"}, "HCC-15": {"system": "HCC-15", "procedure,_shortened": "as §1"}, "NCI-H1975": {"system": "NCI-H1975", "procedure,_shortened": "as §1"}, "LXF-289": {"system": "LXF-289", "procedure,_shortened": "as §1"}, "SK-LU-1": {"system": "SK-LU-1", "procedure,_shortened": "as §1"}, "NCI-H358": {"system": "NCI-H358", "procedure,_shortened": "as §1"}, "NCI-H2228": {"system": "NCI-H2228", "procedure,_shortened": "as §1"}, "NCI-H2347": {"system": "NCI-H2347", "procedure,_shortened": "as §1"}},
  "data": [
    {"smiles": "O=C(O)c1ccc(-c2c[nH]c3ncc(-c4ccccc4)cc23)cc1C1CCCC1", "note": "+ C[C@]1(O)C[C@@H](c2nc(-c3ccc4ccc(-c5ccccc5)nc4c3)c3c(N)nccn32)C1 [Linsitinib] (partner 1 µM)", "values": [
      {"measurement": "relative viability", "setting": "HOP-62; first compound 0.04 µM", "result": 1.1},
      {"measurement": "relative viability", "setting": "HOP-62; first compound 0.1265 µM", "result": 1.03},
      {"measurement": "relative viability", "setting": "HOP-62; first compound 0.4 µM", "result": 1.04},
      {"measurement": "relative viability", "setting": "HOP-62; first compound 1.265 µM", "result": 0.794},
      {"measurement": "relative viability", "setting": "NCI-H647; first compound 0.04 µM", "result": 1.18},
      {"measurement": "relative viability", "setting": "NCI-H647; first compound 0.1265 µM", "result": 1.18},
      {"measurement": "relative viability", "setting": "NCI-H647; first compound 0.4 µM", "result": 1.02},
      {"measurement": "relative viability", "setting": "NCI-H647; first compound 1.265 µM", "result": 1.03},
      {"measurement": "relative viability", "setting": "LOU-NH91; first compound 0.04 µM", "result": 0.983},
      {"measurement": "relative viability", "setting": "LOU-NH91; first compound 0.1265 µM", "result": 0.962},
      {"measurement": "relative viability", "setting": "LOU-NH91; first compound 0.4 µM", "result": 0.899},
      {"measurement": "relative viability", "setting": "LOU-NH91; first compound 1.265 µM", "result": 0.788},
      {"measurement": "relative viability", "setting": "NCI-H460; first compound 0.04 µM", "result": 0.783},
      {"measurement": "relative viability", "setting": "NCI-H460; first compound 0.1265 µM", "result": 0.989},
      {"measurement": "relative viability", "setting": "NCI-H460; first compound 0.4 µM", "result": 0.753},
      {"measurement": "relative viability", "setting": "NCI-H460; first compound 1.265 µM", "result": 0.662},
      {"measurement": "relative viability", "setting": "RERF-LC-KJ; first compound 0.04 µM", "result": 0.86},
      {"measurement": "relative viability", "setting": "RERF-LC-KJ; first compound 0.1265 µM", "result": 0.862},
      {"measurement": "relative viability", "setting": "RERF-LC-KJ; first compound 0.4 µM", "result": 0.906},
      {"measurement": "relative viability", "setting": "RERF-LC-KJ; first compound 1.265 µM", "result": 0.807},
      {"measurement": "relative viability", "setting": "NCI-H1755; first compound 0.04 µM", "result": 0.96},
      {"measurement": "relative viability", "setting": "NCI-H1755; first compound 0.1265 µM", "result": 1.01},
      {"measurement": "relative viability", "setting": "NCI-H1755; first compound 0.4 µM", "result": 1.02},
      {"measurement": "relative viability", "setting": "NCI-H1755; first compound 1.265 µM", "result": 0.961},
      {"measurement": "relative viability", "setting": "NCI-H1734; first compound 0.04 µM", "result": 0.917},
      {"measurement": "relative viability", "setting": "NCI-H1734; first compound 0.1265 µM", "result": 0.938},
      {"measurement": "relative viability", "setting": "NCI-H1734; first compound 0.4 µM", "result": 0.816},
      {"measurement": "relative viability", "setting": "NCI-H1734; first compound 1.265 µM", "result": 0.823},
      {"measurement": "relative viability", "setting": "NCI-H1915; first compound 0.04 µM", "result": 1.06},
      {"measurement": "relative viability", "setting": "NCI-H1915; first compound 0.1265 µM", "result": 1.1},
      {"measurement": "relative viability", "setting": "NCI-H1915; first compound 0.4 µM", "result": 0.946},
      {"measurement": "relative viability", "setting": "NCI-H1915; first compound 1.265 µM", "result": 0.799},
      {"measurement": "relative viability", "setting": "SW 1573; first compound 0.04 µM", "result": 0.753},
      {"measurement": "relative viability", "setting": "SW 1573; first compound 0.1265 µM", "result": 0.763},
      {"measurement": "relative viability", "setting": "SW 1573; first compound 0.4 µM", "result": 0.882},
      {"measurement": "relative viability", "setting": "SW 1573; first compound 1.265 µM", "result": 0.569},
      {"measurement": "relative viability", "setting": "A-427; first compound 0.04 µM", "result": 1.14},
      {"measurement": "relative viability", "setting": "A-427; first compound 0.1265 µM", "result": 1.1},
      {"measurement": "relative viability", "setting": "A-427; first compound 0.4 µM", "result": 1.05},
      {"measurement": "relative viability", "setting": "A-427; first compound 1.265 µM", "result": 0.865},
      {"measurement": "relative viability", "setting": "NCI-H1792; first compound 0.04 µM", "result": 0.577},
      {"measurement": "relative viability", "setting": "NCI-H1792; first compound 0.1265 µM", "result": 0.727},
      {"measurement": "relative viability", "setting": "NCI-H1792; first compound 0.4 µM", "result": 0.56},
      {"measurement": "relative viability", "setting": "NCI-H1792; first compound 1.265 µM", "result": 0.558},
      {"measurement": "relative viability", "setting": "LC-2-ad; first compound 0.04 µM", "result": 0.81},
      {"measurement": "relative viability", "setting": "LC-2-ad; first compound 0.1265 µM", "result": 0.885},
      {"measurement": "relative viability", "setting": "LC-2-ad; first compound 0.4 µM", "result": 0.775},
      {"measurement": "relative viability", "setting": "LC-2-ad; first compound 1.265 µM", "result": 0.425},
      {"measurement": "relative viability", "setting": "PC-3 [JPC-3]; first compound 0.04 µM", "result": 0.915},
      {"measurement": "relative viability", "setting": "PC-3 [JPC-3]; first compound 0.1265 µM", "result": 0.986},
      {"measurement": "relative viability", "setting": "PC-3 [JPC-3]; first compound 0.4 µM", "result": 0.943},
      {"measurement": "relative viability", "setting": "PC-3 [JPC-3]; first compound 1.265 µM", "result": 0.788},
      {"measurement": "relative viability", "setting": "HCC-78; first compound 0.04 µM", "result": 0.431},
      {"measurement": "relative viability", "setting": "HCC-78; first compound 0.1265 µM", "result": 0.571},
      {"measurement": "relative viability", "setting": "HCC-78; first compound 0.4 µM", "result": 0.545},
      {"measurement": "relative viability", "setting": "HCC-78; first compound 1.265 µM", "result": 0.534},
      {"measurement": "relative viability", "setting": "NCI-H2126; first compound 0.04 µM", "result": 0.723},
      {"measurement": "relative viability", "setting": "NCI-H2126; first compound 0.1265 µM", "result": 0.732},
      {"measurement": "relative viability", "setting": "NCI-H2126; first compound 0.4 µM", "result": 0.7},
      {"measurement": "relative viability", "setting": "NCI-H2126; first compound 1.265 µM", "result": 0.623},
      {"measurement": "relative viability", "setting": "HCC-15; first compound 0.04 µM", "result": 0.869},
      {"measurement": "relative viability", "setting": "HCC-15; first compound 0.1265 µM", "result": 0.928},
      {"measurement": "relative viability", "setting": "HCC-15; first compound 0.4 µM", "result": 0.785},
      {"measurement": "relative viability", "setting": "HCC-15; first compound 1.265 µM", "result": 0.567},
      {"measurement": "relative viability", "setting": "NCI-H1975; first compound 0.04 µM", "result": 0.903},
      {"measurement": "relative viability", "setting": "NCI-H1975; first compound 0.1265 µM", "result": 0.935},
      {"measurement": "relative viability", "setting": "NCI-H1975; first compound 0.4 µM", "result": 0.951},
      {"measurement": "relative viability", "setting": "NCI-H1975; first compound 1.265 µM", "result": 1},
      {"measurement": "relative viability", "setting": "LXF-289; first compound 0.04 µM", "result": 0.94},
      {"measurement": "relative viability", "setting": "LXF-289; first compound 0.1265 µM", "result": 0.937},
      {"measurement": "relative viability", "setting": "LXF-289; first compound 0.4 µM", "result": 0.706},
      {"measurement": "relative viability", "setting": "LXF-289; first compound 1.265 µM", "result": 0.322},
      {"measurement": "relative viability", "setting": "SK-LU-1; first compound 0.04 µM", "result": 1.06},
      {"measurement": "relative viability", "setting": "SK-LU-1; first compound 0.1265 µM", "result": 1},
      {"measurement": "relative viability", "setting": "SK-LU-1; first compound 0.4 µM", "result": 0.943},
      {"measurement": "relative viability", "setting": "SK-LU-1; first compound 1.265 µM", "result": 0.851},
      {"measurement": "relative viability", "setting": "NCI-H358; first compound 0.04 µM", "result": 0.649},
      {"measurement": "relative viability", "setting": "NCI-H358; first compound 0.1265 µM", "result": 0.819},
      {"measurement": "relative viability", "setting": "NCI-H358; first compound 0.4 µM", "result": 0.674},
      {"measurement": "relative viability", "setting": "NCI-H358; first compound 1.265 µM", "result": 0.386},
      {"measurement": "relative viability", "setting": "NCI-H2228; first compound 0.04 µM", "result": 0.726},
      {"measurement": "relative viability", "setting": "NCI-H2228; first compound 0.1265 µM", "result": 0.729},
      {"measurement": "relative viability", "setting": "NCI-H2228; first compound 0.4 µM", "result": 0.813},
      {"measurement": "relative viability", "setting": "NCI-H2228; first compound 1.265 µM", "result": 0.589},
      {"measurement": "relative viability", "setting": "NCI-H2347; first compound 0.04 µM", "result": 0.975},
      {"measurement": "relative viability", "setting": "NCI-H2347; first compound 0.1265 µM", "result": 1.11},
      {"measurement": "relative viability", "setting": "NCI-H2347; first compound 0.4 µM", "result": 0.927},
      {"measurement": "relative viability", "setting": "NCI-H2347; first compound 1.265 µM", "result": 0.67}
    ]}
  ]
}
